≈ marks a conversion by molar mass, not a printed value. Like-named read-outs stand apart in the source and are kept apart here.

From paper PMC10970734, “Identification of an Intravenous Injectable NK1 Receptor Antagonist for Use in Traumatic Brain Injury” (International Journal of Molecular Sciences, 2024) come the findings set out here.

The nature of data set [1]: Aqueous solubility. Type of data set: physicochemical. The note with it: water.
Data set [2] addresses T1, central NK1Rs (Meriones unguiculatus, UniProt Q5DUB1).
T1 construct: antagonize central NK1Rs in vivo; from tissue; host or cells: brain of living Mongolian gerbils (in vivo)
Nature of the data set: Gerbil foot-tapping response induced by icv GR73632. The class given is in vivo, Mongolian Gerbils. From the text: The ability of EUC-001 to antagonize central NK1Rs in vivo was examined using the gerbil foot-tapping response. The hind-foot-tapping response is a species-specific, CNS-mediated reaction that occurs in response to fear-evoking situations or aversive stimuli. The same, stereotyped response can be induced by the intracerebroventricular (icv) injection of a selective NK1 receptor agonist, such as GR73632 [59]. In turn, this NK1R-mediated response can be inhibited by centrally acting NK1R antagonists, as well as other anxiolytic agents. Animals were pretreated with a range of concentrations of EUC-001 2 h prior to the icv administration of the NK1R agonist, GR73632.
Female Mongolian Gerbils weighing 30–60 g were administered drug vehicle or a predetermined dose of EUC-001 either orally (po) at a volume of 5 mL/kg or intravenously (iv) at a volume of 1 mL/kg. […] Following recovery from the anesthesia (recovery of the righting reflex), a 5 min observation period was allocated per study and the amount of time gerbils spent tapping their hind paws was measured.

For data set [3], the target named is T2, Muscarinic cholinergic M2 (Homo sapiens, UniProt P08172).
T2 sequence (P08172 1-466): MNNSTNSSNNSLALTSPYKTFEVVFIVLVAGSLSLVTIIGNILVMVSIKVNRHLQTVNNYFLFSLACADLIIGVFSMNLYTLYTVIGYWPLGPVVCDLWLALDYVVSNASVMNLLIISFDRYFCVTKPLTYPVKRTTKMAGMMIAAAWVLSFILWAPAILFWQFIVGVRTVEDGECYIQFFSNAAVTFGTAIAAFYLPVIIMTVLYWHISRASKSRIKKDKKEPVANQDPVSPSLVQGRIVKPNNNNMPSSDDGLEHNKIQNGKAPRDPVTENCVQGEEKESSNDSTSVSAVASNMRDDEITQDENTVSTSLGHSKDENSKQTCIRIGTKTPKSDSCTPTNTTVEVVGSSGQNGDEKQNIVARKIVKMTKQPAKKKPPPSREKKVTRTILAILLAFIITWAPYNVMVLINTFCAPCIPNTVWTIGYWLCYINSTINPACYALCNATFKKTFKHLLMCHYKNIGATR
Nature of the data set: Cerep selectivity profiling, receptor antagonism. The class given is biochemical. The procedure: (§1) The pharmacological specificity of EUC-001 was assessed using the commercially available selectivity profiling services provided by Cerep (Celle l’Evescault, France). Initially, the activity of EUC-001, at a fixed concentration of 10 μM, was evaluated in a range of assays to assess pharmacological selectivity relative to other cell-surface receptors, ion channels and transport proteins. Where any significant binding was detected, further assays were performed to quantify potential non-selective activity. […] In terms of this non-specific activity, the IC50s are approximately 3.6 log units greater than that required for NK1R antagonism.
(§2) The pharmacological specificity of EUC-001 was assessed using the commercially available selectivity profiling services provided by Cerep (Celle l’Evescault, France). For initial screens, the binding of EUC-001 (synthesized by Hoffmann-La Roche, Basel, Switzerland) at a fixed concentration of 10 μM was evaluated in a range of assays to assess pharmacological selectivity relative to other cell-surface receptors, ion channels and transport proteins.
(§3) For agonist activity, results are expressed as a percentage of the control agonist response induced by the selective NK1R agonist [Sar^9, Met(O2)^11]-substance P (100 nM) for a range of concentrations of EUC-001. Antagonist activity is expressed as a percentage change in the response induced by 3 nM [Sar^9, Met(O2)^11]-SP (R&D systems) across a range of concentrations of EUC-001. The EC50 values (concentration producing a half-maximal specific response) and IC50 values (concentration causing a half-maximal inhibition of the control specific agonist response) were determined by non-linear regression analysis of the concentration–response curves generated with mean replicate values using Hill equation curve fitting (Y = D + [(A − D)/(1 + (C/C50)nH)], where Y = specific response, D = minimum specific response, A = maximum specific response, C = compound concentration, and C50 = EC50 or IC50, and nH = slope factor). This analysis was performed using custom software developed at Cerep and validated by comparison with data generated by the commercial software SigmaPlot® 4.0 for Windows® (SPSS Inc., Chicago, IL, USA). For the antagonists, the apparent dissociation constants (KB) were calculated using the modified Cheng Prusoff equation (KB = IC50/(1 + (A/EC50A)), where A = concentration of reference agonist in the assay, and EC50A = EC50 value of the reference agonist).

Data set [4] deals with T3, Adenosine A3 (Homo sapiens, UniProt P0DMS8).
T3 sequence (P0DMS8 1-318): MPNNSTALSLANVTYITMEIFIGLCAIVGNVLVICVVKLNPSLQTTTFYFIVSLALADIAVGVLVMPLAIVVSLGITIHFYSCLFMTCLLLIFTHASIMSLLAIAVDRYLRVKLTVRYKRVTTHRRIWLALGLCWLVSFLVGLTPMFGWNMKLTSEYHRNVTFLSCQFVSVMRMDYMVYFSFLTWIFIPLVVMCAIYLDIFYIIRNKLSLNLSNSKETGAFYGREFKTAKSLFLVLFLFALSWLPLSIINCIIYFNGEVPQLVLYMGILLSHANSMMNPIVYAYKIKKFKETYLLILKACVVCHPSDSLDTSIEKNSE
Nature of the data set: Cerep selectivity profiling, receptor antagonism. The class given is biochemical. The procedure: as §1, §2, §3

The subject of data set [5] is rodent model of TBI. Nature of the data set: Motor function after TBI, rotarod test. As to conditions: rat TBI, 10 mg/kg 30 min post-injury, 10 days. The class given is in vivo, Sprague Dawley rats. (Falling from the rotarod earlier than controls is read as motor impairment.)
Description: The maximum duration of the task was 120 s.
Injury was induced in halothane-anesthetized (ProVet) male Sprague Dawley rats (400 ± 20 g) using acceleration-induced impact TBI [29, 93]. This model involves impacting a 10 mm diameter, 3 mm thick stainless steel disc fixed centrally to the exposed skull between the lambda and bregma with an accelerating impactor. The impactor was a 450 g brass weight dropped from a height of 2 m. […] All animals were fed and watered ad libitum before the induction of injury. During both surgery and the immediate recovery phase, rat rectal temperature was maintained using a thermostatically controlled heating pad. Immediately after injury, animals were manually ventilated until stable respiration was restored, usually in <5 min. After injury, all wounds were sutured. Blood pressure was monitored, both before and after injury, using a femoral arterial line.
Motor and cognitive outcomes in animals (n = 6 per group) were assessed using the rotarod and Barnes maze, respectively, as described in detail elsewhere [64]. The rotarod consists of a motorized rotating assembly of 18 rods (1 mm in diameter) upon which the animals were placed. The rotational speed of the device was increased from 0 to 30 r.p.m. and the duration (in seconds) when the animals either completed the task, fell from the rods, or gripped the rods and spun for two consecutive revolutions rather than walking actively was recorded as the rotarod score. […] After activating the bright lights and aversive auditory stimulus, the latency (in seconds) for the animal to locate and enter the escape tunnel was recorded. All animals were pretrained on both functional outcome tests twice per day over 5 days before injury to establish a normal, uninjured baseline.

T1 sequence (Q5DUB1 whole entry): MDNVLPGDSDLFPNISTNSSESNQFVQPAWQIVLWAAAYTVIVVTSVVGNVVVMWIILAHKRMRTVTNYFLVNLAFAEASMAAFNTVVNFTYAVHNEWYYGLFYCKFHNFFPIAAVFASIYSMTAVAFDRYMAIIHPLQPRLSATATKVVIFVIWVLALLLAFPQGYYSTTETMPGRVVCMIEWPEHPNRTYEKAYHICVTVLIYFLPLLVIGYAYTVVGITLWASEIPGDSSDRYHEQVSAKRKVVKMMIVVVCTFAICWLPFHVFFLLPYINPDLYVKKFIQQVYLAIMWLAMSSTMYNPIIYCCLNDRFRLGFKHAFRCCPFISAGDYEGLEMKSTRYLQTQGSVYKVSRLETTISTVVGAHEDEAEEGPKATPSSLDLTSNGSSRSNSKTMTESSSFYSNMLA

A word on the solubility: it is the dissolved amount per volume that the medium holds. Usually IC50 stands for the point on the concentration scale where inhibition reaches its midpoint. On to `Cc1ccccc1-c1cc(N2CCN(C)CC2)ncc1C(=O)N(C)Cc1cc(C(F)(F)F)cc(C(F)(F)F)c1` [EUC-001, N-(3,5-Bis-trifluoromethyl-benzyl)-N-methyl-6-(4-methyl-piperazine-1-yl)-4-o-tolyl-nicotinamide], for which the values for the solubility in data set [1] (free base) and in data set [1] (hydrochloride salt) were 500 µg/mL (≈ 908 µM) and 1500 µg/mL, respectively. The ED50 in data set [2] (iv administration, icv GR73632, read-out: IC50 dose, inhibition of foot-tapping response) stood at 0.68 mg/kg; in data set [2] (oral administration (po), icv GR73632 3 pmol/5 µL, read-out: IC50 dose, inhibition of foot-tapping response), 0.89 mg/kg. In data set [3], the IC50 stood at 30 µM. For the same molecule, the “IC50 (M)” value in data set [4] is listed as “Not calculable”. Besides, the “Motor function, rotarod score” value in data set [5] is “much smaller decline in motor function”.
